Test results reported in US12692269B2, “Therapeutic compounds” (Genentech, Inc., priority 2019, dated 2026).

How the values were obtained:
Assay type in all cases: binding
[1] = target: TEAD1 YAP50-100 (Homo sapiens, UniProt P28347); assay: TEAD1-YAP HTRF (TR-FRET) protein-protein interaction assay; conditions: TEAD1, YAP peptide 50-100, HTRF; for EC50: read-out: TEAD1 YAP50-100 HTRF combined: EC50
In short: (§1)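 Compounds were given 30 min to bind Eu anti-His-labelled TEAD (His-tagged, aa 217-447) before streptavidin-XL665-coupled biotin-YAP 50-100 or biotin-TAZ 13-57 peptide went in for a further 60 min at room temperature. Loss of 665/615 nm TR-FRET ratio gave IC50/EC50 via four-parameter curve fit.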

[2] = target: TEAD2 YAP50-100 (Homo sapiens, UniProt Q15562); assay: TEAD2-YAP HTRF (TR-FRET) protein-protein interaction assay; conditions: TEAD2, YAP peptide 50-100, HTRF; for EC50: read-out: TEAD2 YAP50-100 HTRF combined: EC50
TEAD2 YAP50-100, sequence (Q15562 217-447): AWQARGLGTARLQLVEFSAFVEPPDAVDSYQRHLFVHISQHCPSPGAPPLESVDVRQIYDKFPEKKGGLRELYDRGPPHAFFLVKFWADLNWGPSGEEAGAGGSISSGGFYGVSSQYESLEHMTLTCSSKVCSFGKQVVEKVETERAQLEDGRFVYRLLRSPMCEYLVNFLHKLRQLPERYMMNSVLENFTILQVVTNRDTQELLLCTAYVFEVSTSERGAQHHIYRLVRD
In short: as §1

[3] = target: TEAD3 YAP50-100 (Homo sapiens, UniProt Q99594); assay: TEAD3-YAP HTRF (TR-FRET) protein-protein interaction assay; conditions: TEAD3, YAP peptide 50-100, HTRF; for EC50: read-out: TEAD3 YAP50-100 HTRF combined: EC50
TEAD3 YAP50-100, sequence (Q99594 173-435 limits assumed): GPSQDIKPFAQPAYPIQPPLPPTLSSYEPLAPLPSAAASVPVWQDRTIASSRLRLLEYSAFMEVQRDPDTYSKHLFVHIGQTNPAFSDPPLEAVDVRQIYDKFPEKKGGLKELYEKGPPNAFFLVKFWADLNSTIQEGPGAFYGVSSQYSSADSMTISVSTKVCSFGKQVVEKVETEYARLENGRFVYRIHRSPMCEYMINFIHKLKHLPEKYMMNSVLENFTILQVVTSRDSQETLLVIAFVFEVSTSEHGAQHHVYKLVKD
In short: as §1

[4] = target: TEAD4 YAP50-100 (Homo sapiens, UniProt Q15561); assay: TEAD4-YAP HTRF (TR-FRET) protein-protein interaction assay; conditions: TEAD4, YAP peptide 50-100, HTRF; for EC50: read-out: TEAD4 YAP50-100 HTRF combined: EC50
TEAD4 YAP50-100, sequence (Q15561 217-434 limits assumed): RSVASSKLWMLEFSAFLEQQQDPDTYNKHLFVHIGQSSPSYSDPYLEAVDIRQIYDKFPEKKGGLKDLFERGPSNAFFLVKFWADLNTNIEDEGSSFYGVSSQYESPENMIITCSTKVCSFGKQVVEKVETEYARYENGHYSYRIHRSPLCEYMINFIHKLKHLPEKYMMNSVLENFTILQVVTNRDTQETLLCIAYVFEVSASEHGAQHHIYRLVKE
In short: as §1

[5] = target: TEAD1 TAZ (amino acids 13-57) (Homo sapiens, UniProt P28347); assay: TEAD1-TAZ HTRF (TR-FRET) protein-protein interaction assay; conditions: for TEAD1 TAZ HTRF combined: Max % Inhibition: TEAD1, TAZ peptide; for EC50: TEAD1-TAZ HTRF, TR-FRET 665 nm/615 nm, read-out: TEAD1 TAZ HTRF combined: EC50
TEAD1 TAZ (amino acids 13-57), sequence (P28347 167-426 limits assumed): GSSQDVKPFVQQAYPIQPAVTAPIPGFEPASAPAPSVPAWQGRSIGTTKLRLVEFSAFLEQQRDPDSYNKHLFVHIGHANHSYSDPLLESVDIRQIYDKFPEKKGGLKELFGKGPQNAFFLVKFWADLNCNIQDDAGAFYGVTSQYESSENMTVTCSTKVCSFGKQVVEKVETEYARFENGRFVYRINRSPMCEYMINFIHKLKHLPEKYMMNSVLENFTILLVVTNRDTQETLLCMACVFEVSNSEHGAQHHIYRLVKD
In short: as §1

[6] = target: TEAD2 TAZ (amino acids 13-57) (Homo sapiens, UniProt Q15562); assay: TEAD2-TAZ HTRF (TR-FRET) protein-protein interaction assay; conditions: for TEAD2 TAZ HTRF combined: Max % Inhibition: TEAD2, TAZ peptide; for EC50: TEAD2-TAZ HTRF, TR-FRET 665 nm/615 nm, read-out: TEAD2 TAZ HTRF combined: EC50
TEAD2 TAZ (amino acids 13-57), sequence (Q15562 217-447): as the sequence (Q15562 217-447) above
In short: as §1

[7] = target: TEAD3 TAZ (amino acids 13-57) (Homo sapiens, UniProt Q99594); assay: TEAD3-TAZ HTRF (TR-FRET) protein-protein interaction assay; conditions: for TEAD3 TAZ HTRF combined: Max % Inhibition: TEAD3, TAZ peptide; for EC50: TEAD3-TAZ HTRF, TR-FRET 665 nm/615 nm, read-out: TEAD3 TAZ HTRF combined: EC50
TEAD3 TAZ (amino acids 13-57), sequence (Q99594 173-435 limits assumed): as the sequence (Q99594 173-435 limits assumed) above
In short: as §1

[8] = target: TEAD4 TAZ (amino acids 13-57) (Homo sapiens, UniProt Q15561); assay: TEAD4-TAZ HTRF (TR-FRET) protein-protein interaction assay; conditions: for TEAD4 TAZ HTRF combined: Max % Inhibition: TEAD4, TAZ peptide; for EC50: TEAD4-TAZ HTRF, TR-FRET 665 nm/615 nm, read-out: TEAD4 TAZ HTRF combined: EC50
TEAD4 TAZ (amino acids 13-57), sequence (Q15561 217-434 limits assumed): as the sequence (Q15561 217-434 limits assumed) above
In short: as §1

TEAD1 YAP50-100, sequence (P28347 167-426 limits assumed): as the sequence (P28347 167-426 limits assumed) above

SMILES | TEAD1 YAP50-100 HTRF combined: Max % Inhibition [1] | EC50 [1] | TEAD2 YAP50-100 HTRF combined: Max % Inhibition [2] | EC50 [2] | TEAD3 YAP50-100 HTRF combined: Max % Inhibition [3] | EC50 [3] | TEAD4 YAP50-100 HTRF combined: Max % Inhibition [4] | EC50 [4] | TEAD1 TAZ HTRF combined: Max % Inhibition [5] | EC50 [5] | TEAD2 TAZ HTRF combined: Max % Inhibition [6] | EC50 [6] | TEAD3 TAZ HTRF combined: Max % Inhibition [7] | EC50 [7] | TEAD4 TAZ HTRF combined: Max % Inhibition [8] | EC50 [8]
CCn1cnc(-c2nn3c(=O)cc(-c4ccc(C5CCCCC5)cc4)[nH]c3c2C(=O)N2CC(CF)C2)c1 [Compound 31, 5-(4-Cyclohexylphenyl)-2-(1-ethyl-1H-imidazol-4-yl)-3-(3-(fluoromethyl)azetidine-1-carbonyl)pyrazolo[1,5-a]pyrimidin-7(4H)-one] | 65.0% | 80 nM | 62.0% | 20 nM | 59.0% | 170 nM | 36.0% | 780 nM | 60.5% | 120 nM | 60.5% | 20 nM | 49.5% | 210 nM | 32.0% | 620 nM
Cn1cnc(-c2nn3c(=O)cc(-c4ccc(C5CCCCC5)cc4)[nH]c3c2C(=O)N2CC(CF)C2)c1 [Compound 32, 5-(4-Cyclohexylphenyl)-3-(3-(fluoromethyl)azetidine-1-carbonyl)-2-(1-methyl-1H-imidazol-4-yl)pyrazolo[1,5-a]pyrimidin-7(4H)-one] | 65.0% | 50 nM | 61.5% | 10 nM | 61.0% | 60 nM | 38.5% | 380 nM | 59.5% | 50 nM | 59.0% | 10 nM | 49.5% | 60 nM | 31.0% | 290 nM
CCN(C)C(=O)c1nn2c(=O)cc(-c3ccc(C4CCCCC4)cc3)[nH]c2c1C(=O)N1CC(CF)C1 [Compound 35, 5-(4-Cyclohexylphenyl)-N-ethyl-3-(3-(fluoromethyl)azetidine-1-carbonyl)-N-methyl-7-oxo-4,7-dihydropyrazolo[1,5-a]pynmidine-2-carboxamide] | 72.0% | 70 nM | 71.5% | 20 nM | 68.0% | 130 nM | 52.5% | 180 nM | 59.0% | 80 nM | 71.5% | 20 nM | 57.0% | 150 nM | 37.0% | 140 nM
O=C(c1nn2c(=O)cc(-c3ccc(C4CCCCC4)cc3)[nH]c2c1C(=O)N1CC(CF)C1)N1CCCC1 [Compound 36, 5-(4-Cyclohexylphenyl)-3-(3-(fluoromethyl)azetidine-1-carbonyl)-2-(pyrrolidine-1-carbonyl)pyrazolo[1,5-a]pyrimidin-7(4H)-one] | 70.0% | 70 nM | 73.5% | 20 nM | 71.0% | 180 nM | 48.0% | 1020 nM | 60.5% | 80 nM | 73.5% | 20 nM | 60.0% | 200 nM | 38.0% | 850 nM
O=C(c1c(-c2cccnc2)nn2c(=O)cc(-c3ccc(C4CCCCC4)cc3)[nH]c12)N1CC(CF)C1 [Compound 37, 5-(4-Cyclohexylphenyl)-3-(3-(fluoromethyl)azetidine-1-carbonyl)-2-(pyridin-3-yl)pyrazolo[1,5-a]pyrimidin-7(4H)-one] | 66.0% | 100 nM | 54.5% | 20 nM | 64.0% | 150 nM | 27.5% | 220 nM | 50.0% | 120 nM | 50.0% | 20 nM | 55.0% | 150 nM | 16.5% | 160 nM
O=C(c1c(-c2ccccc2)nn2c(=O)cc(-c3ccc(C4CCCCC4)cc3)[nH]c12)N1CC(CF)C1 [Compound 38, 5-(4-Cyclohexylphenyl)-3-(3-(fluoromethyl)azetidine-1-carbonyl)-2-phenylpyrazolo[1,5-a]pyrimidin-7(4H)-one] | 64.0% | 210 nM | 61.5% | 30 nM | 65.0% | 220 nM | 41.0% | 200 nM | 47.5% | 220 nM | 64.0% | 20 nM | 61.0% | 250 nM | 37.5% | 130 nM
O=C(c1c(-c2cnco2)nn2c(=O)cc(-c3ccc(C4CCCCC4)cc3)[nH]c12)N1CC(CF)C1 [Compound 39, 5-(4-Cyclohexylphenyl)-3-(3-(fluoromethyl)azetidine-1-carbonyl)-2-(oxazol-5-yl)pyrazolo[1,5-a]pyrimidin-7(4H)-one] | 65.0% | 50 nM | 62.0% | 20 nM | 61.5% | 60 nM | 34.5% | 650 nM | 37.5% | 90 nM | 56.5% | 20 nM | 53.5% | 60 nM | 18.0% | 370 nM
CC(C)c1ccc(COc2cc(=O)n3nc(-c4cnccn4)c(C(=O)N4CC(CF)C4)c3[nH]2)cc1 [Compound 52, 3-(3-(Fluoromethyl)azetidine-1-carbonyl)-5-((4-isopropylbenzyl)oxy)-2-(pyrazin-2-yl)pyrazolo[1,5-a]primidin-7(4H)-one] | 70.0% | 50 nM | 68.0% | 20 nM | 57.0% | 150 nM | 66.0% | 180 nM | 62.0% | 60 nM | 69.0% | 20 nM | 48.0% | 180 nM | 58.0% | 150 nM
CC(C)(C)c1ccc(COc2cc(=O)n3nc(-c4cnccn4)c(C(=O)N4CC(CF)C4)c3[nH]2)cc1 [Compound 53, 5-((4-(Tert-butyl)benzyl)oxy)-3-(3-(fluoromethyl)azetidine-1-carbonyl)-2-(pyrazin-2-yl)pyrazolo[1,5-a]pyrimidin-7(4H)-one] | 72.0% | 50 nM | 64.5% | 20 nM | 58.5% | 110 nM | 65.5% | 50 nM | 62.5% | 70 nM | 67.0% | 20 nM | 46.0% | 90 nM | 51.5% | 30 nM
